Assay results from patent US9302999B2, “Substituted triazoles as herbicides” (E. I. DU PONT DE NEMOURS AND COMPANY, priority 2012, dated 2016).

Legend:
Type in all cases: in vivo
[1] = tested on: canarygrass (Phalaris minor); test: Test D pre-/postemergence: canarygrass
Text: (§1) Seeds of plant species selected from bluegrass (annual bluegrass, Poa annua), blackgrass (Alopecurus myosuroides), canarygrass (Phalaris minor), chickweed (common chickweed, Stellaria media), galium (catchweed bedstraw, Galium aparine), bromegrass, downy (downy bromegrass, Bromus tectorum), field poppy (Papaver rhoeas), field violet (Viola arvensis), foxtail, green (green foxtail, Setaria viridis), deadnettle (henbit deadnettle, Lamium amplexicaule), ryegrass, Italian (Italian ryegrass, Lolium multiflorum), kochia (Kochia scoparia), lambsquarters (Chenopodium album), oilseed rape (Brassica napus), pigweed (Amaranthus retroflexus), Russian thistle (Salsola iberica), chamomile (scentless chamomile, Matricaria inodora), speedwell (bird's-eye speedwell, Veronica persica), barley, spring (spring barley, Hordeum vulgare), wheat, spring (spring wheat, Triticum aestivum), buckwheat, wild (wild buckwheat, Polygonum convolvulus), mustard, wild (wild mustard, Sinapis arvensis), oat, wild (wild oat, Avena fatua), radish, wild (wild radish, Raphanus raphanistrum), windgrass (Apera spica-venti), barley, winter (winter barley, Hordeum vulgare), and wheat, winter (winter wheat, Triticum aestivum) were planted into a silt loam soil and treated preemergence with test chemicals formulated in a non-phytotoxic solvent mixture which included a surfactant. At the same time, these same crop and weed species were planted in pots containing the planting medium comprising spaghnum peat moss, vermiculite, wetting agent and starter nutrients and treated with postemergence applications of the test chemicals formulated in the same manner. Plants ranged in height from 2 to 18 cm (1- to 4-leaf stage).
(§2) Treated plants and controls were maintained in a controlled growth environment for 14 to 21 days after which time all species were compared to controls and visually evaluated. Plant response ratings, summarized in Table D, are based on a scale of 0 to 100 where 0 is no effect and 100 is complete control. A dash (-) response means no test result.

[2] = tested on: bromegrass, downy (downy bromegrass, Bromus tectorum); test: Test D pre-/postemergence: bromegrass, downy
Text: as §1, §2

[3] = tested on: speedwell (bird's-eye speedwell, Veronica persica); test: Test D pre-/postemergence: speedwell; conditions: Preemergence
Text: as §1, §2

corn (Zea mays) = test: Test F pre-/postemergence: corn
Summary of the method: (§3)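 0–100 visual control scores, taken 14–21 d after application in the greenhouse. Preemergence treatment was made to silt loam soil at sowing. Postemergence sprays hit 1- to 4-leaf plants (2–18 cm) in peat/vermiculite mix. Surfactant-containing non-phytotoxic solvent served as the vehicle.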

[4] = tested on: lambsquarters (Chenopodium album); test: Test F pre-/postemergence: lambsquarters; conditions: Preemergence
Summary of the method: as §3

[5] = tested on: waterhemp (common waterhemp, Amaranthus rudis); test: Test F pre-/postemergence: waterhemp; conditions: Preemergence
Summary of the method: as §3

[6] = tested on: surinam grass (Brachiaria decumbens); test: Test F pre-/postemergence: surinam grass; conditions: Preemergence
Summary of the method: as §3

[7] = tested on: panicum, fall (fall panicum Panicum dichotomiflorum); test: Test F pre-/postemergence: panicum, fall
Summary of the method: as §3

[8] = tested on: johnsongrass (Sorghum halepense); test: Test F pre-/postemergence: johnsongrass; conditions: Preemergence
Summary of the method: as §3

[9] = Postemergence, 31 g ai/ha, scale 0 to 100 (0 no effect, 100 complete control)
[10] = Postemergence, 62 g ai/ha, scale 0 to 100 (0 no effect, 100 complete control)
[11] = Postemergence, 125 g ai/ha, scale 0 to 100, 0 no effect, 100 complete control
[12] = Postemergence, 16 g ai/ha, scale 0 to 100
[13] = Preemergence, 16 g ai/ha, scale 0 to 100, 0 no effect, 100 complete control
[14] = Preemergence, 31 g ai/ha, scale 0 to 100, 0 no effect, 100 complete control
[15] = Preemergence, 62 g ai/ha, scale 0 to 100
[16] = Preemergence, 125 g ai/ha, scale 0 to 100
[17] = 16 g ai/ha, scale 0 to 100, 0 no effect, 100 complete control
[18] = 31 g ai/ha, scale 0 to 100, 0 no effect, 100 complete control
[19] = Preemergence, 250 g ai/ha, scale 0 to 100
[20] = Postemergence, 8 g ai/ha, scale 0 to 100
[21] = Postemergence, 31 g ai/ha, scale 0 to 100
[22] = Postemergence, 62 g ai/ha, scale 0 to 100
[23] = Postemergence, 125 g ai/ha, scale 0 to 100
[24] = Preemergence, 8 g ai/ha, scale 0 to 100, 0 no effect, 100 complete control
[25] = 8 g ai/ha, scale 0 to 100, 0 no effect, 100 complete control

SMILES: Cc1nn(-c2ccc(C(F)(F)F)c(F)c2)nc1Oc1ccnc(C(F)(F)F)c1 [Compound 148]
- Plant response rating: Canarygrass [1, 9]: 30
- Plant response rating: Canarygrass [1, 10]: 20
- Plant response rating: Canarygrass [1, 11]: 70
- Plant response rating, Canarygrass [1, 12]: 10
- Plant response rating, Canarygrass [1, 13]: 0
- Plant response rating, Canarygrass [1, 14]: 50
- Plant response rating, Canarygrass [1, 15]: 60
- Plant response rating, Canarygrass [1, 16]: 100
- Plant response rating: Bromegrass, Downy [2, 9]: 5
- Plant response rating: Bromegrass, Downy [2, 10]: 15
- Plant response rating: Bromegrass, Downy [2, 11]: 20
- Plant response rating, Bromegrass, Downy [2, 12]: 5
- Plant response rating, Bromegrass, Downy [2, 13]: 0
- Plant response rating, Bromegrass, Downy [2, 14]: 0
- Plant response rating, Bromegrass, Downy [2, 15]: 10
- Plant response rating, Bromegrass, Downy [2, 16]: 20
- Plant response rating, Speedwell [3, 17]: 5
- Plant response rating, Speedwell [3, 18]: 95
- Plant response rating, Speedwell ([3]; 62 g ai/ha, scale 0 to 100): 50
- Plant response rating, Speedwell ([3]; 125 g ai/ha, scale 0 to 100): 100
- Plant response rating, Corn (corn (Zea mays); [13]): 0
- Plant response rating, Corn (corn (Zea mays); [14]): 0
- Plant response rating, Corn (corn (Zea mays); [15]): 0
- Plant response rating, Corn (corn (Zea mays); [16]): 0
- Plant response rating, Corn (corn (Zea mays); [19]): 5
- Plant response rating, Lambsquarters [4, 17]: 0
- Plant response rating, Lambsquarters [4, 18]: 50
- Plant response rating, Lambsquarters ([4]; 62 g ai/ha, scale 0 to 100): 98
- Plant response rating, Lambsquarters ([4]; 125 g ai/ha, scale 0 to 100): 100
- Plant response rating, Lambsquarters ([4]; 250 g ai/ha, scale 0 to 100): 100
- Plant response rating, Waterhemp [5, 17]: 30
- Plant response rating, Waterhemp [5, 18]: 90
- Plant response rating, Waterhemp ([5]; 125 g ai/ha, scale 0 to 100): 100
- Plant response rating, Waterhemp ([5]; 250 g ai/ha, scale 0 to 100): 100
- Plant response rating, Surinam Grass [6, 17]: 25
- Plant response rating, Surinam Grass [6, 18]: 40
- Plant response rating, Surinam Grass ([6]; 125 g ai/ha, scale 0 to 100): 98
- Plant response rating, Surinam Grass ([6]; 250 g ai/ha, scale 0 to 100): 98
- Plant response rating, Panicum, Fall [7, 13]: 75
- Plant response rating, Panicum, Fall [7, 14]: 85
- Plant response rating, Panicum, Fall [7, 16]: 100
- Plant response rating, Panicum, Fall [7, 19]: 100
- Plant response rating, Johnsongrass [8, 17]: 0
- Plant response rating, Johnsongrass [8, 18]: 20
- Plant response rating, Johnsongrass ([8]; 62 g ai/ha, scale 0 to 100): 20
- Plant response rating, Johnsongrass ([8]; 125 g ai/ha, scale 0 to 100): 30
- Plant response rating, Johnsongrass ([8]; 250 g ai/ha, scale 0 to 100): 40

SMILES: CCc1nn(-c2ccc(C(F)(F)F)cc2)nc1Cc1ccnc(C(F)(F)F)c1 [Compound 155]
- Plant response rating: Canarygrass [1, 9]: 70
- Plant response rating: Canarygrass [1, 10]: 70
- Plant response rating: Canarygrass [1, 11]: 85
- Plant response rating, Canarygrass [1, 12]: 20
- Plant response rating, Canarygrass [1, 13]: 10
- Plant response rating, Canarygrass [1, 14]: 70
- Plant response rating, Canarygrass [1, 15]: 100
- Plant response rating, Canarygrass [1, 16]: 100
- Plant response rating: Bromegrass, Downy [2, 9]: 15
- Plant response rating: Bromegrass, Downy [2, 10]: 35
- Plant response rating: Bromegrass, Downy [2, 11]: 55
- Plant response rating, Bromegrass, Downy [2, 12]: 5
- Plant response rating, Bromegrass, Downy [2, 13]: 0
- Plant response rating, Bromegrass, Downy [2, 14]: 5
- Plant response rating, Bromegrass, Downy [2, 15]: 10
- Plant response rating, Bromegrass, Downy [2, 16]: 35
- Plant response rating, Speedwell [3, 17]: 100
- Plant response rating, Speedwell [3, 18]: 100
- Plant response rating, Speedwell ([3]; 62 g ai/ha, scale 0 to 100): 100
- Plant response rating, Speedwell ([3]; 125 g ai/ha, scale 0 to 100): 100
- Plant response rating, Corn (corn (Zea mays); [15]): 10
- Plant response rating, Corn (corn (Zea mays); [16]): 15
- Plant response rating, Corn (corn (Zea mays); [19]): 15
- Plant response rating, Lambsquarters ([4]; 62 g ai/ha, scale 0 to 100): 98
- Plant response rating, Lambsquarters ([4]; 125 g ai/ha, scale 0 to 100): 98
- Plant response rating, Lambsquarters ([4]; 250 g ai/ha, scale 0 to 100): 98
- Plant response rating, Waterhemp ([5]; 125 g ai/ha, scale 0 to 100): 100
- Plant response rating, Waterhemp ([5]; 250 g ai/ha, scale 0 to 100): 100
- Plant response rating, Surinam Grass ([6]; 125 g ai/ha, scale 0 to 100): 90
- Plant response rating, Surinam Grass ([6]; 250 g ai/ha, scale 0 to 100): 90
- Plant response rating, Panicum, Fall [7, 16]: 100
- Plant response rating, Panicum, Fall [7, 19]: 100
- Plant response rating, Johnsongrass ([8]; 62 g ai/ha, scale 0 to 100): 90
- Plant response rating, Johnsongrass ([8]; 125 g ai/ha, scale 0 to 100): 90
- Plant response rating, Johnsongrass ([8]; 250 g ai/ha, scale 0 to 100): 100

SMILES: CCOc1nn(-c2ccc(F)cc2)nc1Cc1ccnc(C(F)(F)F)c1 [Compound 196, 4-[[5-ethoxy-2-(4-fluorophenyl)-2H-1,2,3-triazol-4-yl]methyl]-2-(trifluoromethyl)pyridine]
- Plant response rating: Canarygrass [1, 9]: 70
- Plant response rating: Canarygrass [1, 10]: 80
- Plant response rating: Canarygrass [1, 11]: 85
- Plant response rating, Canarygrass [1, 12]: 30
- Plant response rating, Canarygrass [1, 13]: 40
- Plant response rating, Canarygrass [1, 14]: 100
- Plant response rating, Canarygrass [1, 15]: 100
- Plant response rating, Canarygrass [1, 16]: 100
- Plant response rating: Bromegrass, Downy [2, 9]: 35
- Plant response rating: Bromegrass, Downy [2, 10]: 50
- Plant response rating: Bromegrass, Downy [2, 11]: 65
- Plant response rating, Bromegrass, Downy [2, 12]: 15
- Plant response rating, Bromegrass, Downy [2, 13]: 5
- Plant response rating, Bromegrass, Downy [2, 14]: 15
- Plant response rating, Bromegrass, Downy [2, 15]: 70
- Plant response rating, Bromegrass, Downy [2, 16]: 90
- Plant response rating, Speedwell [3, 17]: 5
- Plant response rating, Speedwell [3, 18]: 100
- Plant response rating, Speedwell ([3]; 62 g ai/ha, scale 0 to 100): 100
- Plant response rating, Speedwell ([3]; 125 g ai/ha, scale 0 to 100): 100
- Plant response rating, Corn (corn (Zea mays); [20]): 15
- Plant response rating, Corn (corn (Zea mays); [12]): 15
- Plant response rating, Corn (corn (Zea mays); [21]): 20
- Plant response rating, Corn (corn (Zea mays); [22]): 20
- Plant response rating, Corn (corn (Zea mays); [23]): 25
- Plant response rating, Corn (corn (Zea mays); [24]): 0
- Plant response rating, Corn (corn (Zea mays); [13]): 0
- Plant response rating, Corn (corn (Zea mays); [14]): 0
- Plant response rating, Corn (corn (Zea mays); [15]): 5
- Plant response rating, Corn (corn (Zea mays); [16]): 30
- Plant response rating, Lambsquarters [4, 25]: 60
- Plant response rating, Lambsquarters [4, 17]: 70
- Plant response rating, Lambsquarters [4, 18]: 80
- Plant response rating, Lambsquarters ([4]; 62 g ai/ha, scale 0 to 100): 95
- Plant response rating, Lambsquarters ([4]; 125 g ai/ha, scale 0 to 100): 98
- Plant response rating, Waterhemp [5, 25]: 50
- Plant response rating, Waterhemp [5, 17]: 95
- Plant response rating, Waterhemp [5, 18]: 98
- Plant response rating, Waterhemp ([5]; 125 g ai/ha, scale 0 to 100): 100
- Plant response rating, Surinam Grass [6, 25]: 0
- Plant response rating, Surinam Grass [6, 18]: 15
- Plant response rating, Surinam Grass ([6]; 125 g ai/ha, scale 0 to 100): 100
- Plant response rating, Panicum, Fall [7, 20]: 20
- Plant response rating, Panicum, Fall [7, 12]: 40
- Plant response rating, Panicum, Fall [7, 21]: 80
- Plant response rating, Panicum, Fall [7, 22]: 85
- Plant response rating, Panicum, Fall [7, 23]: 85
- Plant response rating, Panicum, Fall [7, 24]: 25
- Plant response rating, Panicum, Fall [7, 14]: 98
- Plant response rating, Panicum, Fall [7, 16]: 100
- Plant response rating, Johnsongrass [8, 17]: 65
- Plant response rating, Johnsongrass [8, 18]: 65
- Plant response rating, Johnsongrass ([8]; 62 g ai/ha, scale 0 to 100): 95
- Plant response rating, Johnsongrass ([8]; 125 g ai/ha, scale 0 to 100): 98
